Assays:
α1d-AR = target: T1, α1d-AR (Homo sapiens, UniProt P25100); experiment: radioligand ([125I]-HEAT) receptor binding assay, COS cell membranes expressing cloned receptor; conditions: [125I]-HEAT 50 pM, 1 hour room temperature
T1 construct: expressed in transfected cells; host or cells: COS cells, pcDNA3 vector, transient DEAE-dextran transfection
T1 sequence (P25100 1-572): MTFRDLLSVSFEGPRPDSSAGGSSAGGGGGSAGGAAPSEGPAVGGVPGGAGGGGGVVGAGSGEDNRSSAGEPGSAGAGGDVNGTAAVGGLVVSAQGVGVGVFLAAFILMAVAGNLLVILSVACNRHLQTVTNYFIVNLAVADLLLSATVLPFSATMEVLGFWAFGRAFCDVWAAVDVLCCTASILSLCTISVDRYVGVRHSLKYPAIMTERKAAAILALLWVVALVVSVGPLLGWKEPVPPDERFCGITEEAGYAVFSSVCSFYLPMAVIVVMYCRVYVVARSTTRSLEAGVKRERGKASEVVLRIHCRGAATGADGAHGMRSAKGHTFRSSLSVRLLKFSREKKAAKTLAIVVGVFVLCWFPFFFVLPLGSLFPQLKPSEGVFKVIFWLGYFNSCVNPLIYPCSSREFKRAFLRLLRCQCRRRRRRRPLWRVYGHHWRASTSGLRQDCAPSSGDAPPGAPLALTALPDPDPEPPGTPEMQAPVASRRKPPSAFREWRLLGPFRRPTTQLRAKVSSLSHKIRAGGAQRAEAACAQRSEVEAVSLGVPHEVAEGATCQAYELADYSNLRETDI
From the text: (§1) The first assay tested the ability of compounds of Formula I to bind to membrane bound receptors α1a-AR, α1b-AR and α1d-AR.
(§2) The DNA sequences of the three cloned human α1-AR subtypes have been published. […] We used published DNA sequence information to design primers for use in RT-PCR amplification of each subtype to obtain cloned cDNAs. Human poly A+ RNA was obtained from commercially available sources and included hippocampus and prostate samples, sources which have been cited in the literature. For the primary screen a radioligand binding assay was used which employed membrane preparations from cells expressing the individual cloned receptor cDNAs. Radiolabeled ligands with binding activity on all three subtypes (non-selective) are commercially available ([125I]-HEAT, [3H]-prazosin). Each α1 receptor subtype was cloned from poly A+ RNA by the standard method of reverse transcription-polymerase chain reaction (RT-PCR). The following sources of polyA+ RNA were used for the cloning of the α1 receptor subtypes: α1a-AR, human hippocampus and prostate, α1b-AR, human hippocampus, α1d-AR, human hippocampus. The resulting cDNAs were cloned into the pcDNA3 mammalian expression vector (Invitrogen Corp., San Diego Calif.). Each DNA was sequenced for verification and to detect any possible mutations introduced during the amplification process. Any deviation in sequence from the published consensus for each receptor subtype was corrected by site-directed mutagenesis.
(§3) The three α1-AR subtypes (a, b, d) were transfected into COS cells using a standard DEAE-dextran procedure with a chloroquine shock. In this procedure, each tissue culture dish (100 mm) was inoculated with 3.5×10^6 cells and transfected with 10 μg of DNA. Approximately 72 hours post-transfection, the cells were harvested and COS membranes were prepared. Transfected COS cells from 25 plates (100 mm) were scraped and suspended in 15 mL of TE buffer (50 mM Tris-HCl, 5 mM EDTA, pH 7.4). The suspension was disrupted with a homogenizer. It was then centrifuged at 1000× g for 10 minutes at 4° C. The supernatant was centrifuged at 34,500× g for 20 minutes at 4° C. The pellet was resuspended in 5 mL TNE buffer (50 mM Tris-HCl, 5 mM EDTA, 150 mM NaCl, pH 7.4). The resulting membrane preparation was aliquoted and stored at −70° C. The protein concentration was determined following membrane solubilization with TritonX-100.
(§4) The ability of each compound to bind to each of the α1-AR subtypes was assessed in a receptor binding assay. [125I]-HEAT, a non-selective α1-AR ligand, was used as the radiolabeled ligand. Each well of a 96-well plate received: 140 μL TNE, […] [125I]-HEAT diluted in TNE (50,000 cpm; final concentration 50 pM), 10 μL test compound diluted in DMSO (final concentration 1 pM-10 μM), […] COS cell membrane preparation expressing one of the three α1-AR subtypes (0.05-0.2 mg membrane protein). The plate was incubated for 1 hour at room temperature and the reaction mixtures were filtered through a Packard GF/C Unifilter filter plate. The filter plate was dried for 1 hour in a vacuum oven. Scintillation fluid ([…]) was added to each well, and the filter plate was counted in a Packard Topcount scintillation counter. Data was analyzed using GraphPad Prism software.
(§5) Tables A through D list the IC50 values expressed in nanomolar concentration for select compounds of the invention in all receptor subtypes.

α1b-AR = target: T2, α1b-AR (Homo sapiens, UniProt P35368); experiment: as above; conditions: [125I]-HEAT 50 pM, 1 hour room temperature
T2 construct: expressed in transfected cells; host or cells: COS cells, pcDNA3 vector, transient DEAE-dextran transfection
T2 sequence (P35368 1-520): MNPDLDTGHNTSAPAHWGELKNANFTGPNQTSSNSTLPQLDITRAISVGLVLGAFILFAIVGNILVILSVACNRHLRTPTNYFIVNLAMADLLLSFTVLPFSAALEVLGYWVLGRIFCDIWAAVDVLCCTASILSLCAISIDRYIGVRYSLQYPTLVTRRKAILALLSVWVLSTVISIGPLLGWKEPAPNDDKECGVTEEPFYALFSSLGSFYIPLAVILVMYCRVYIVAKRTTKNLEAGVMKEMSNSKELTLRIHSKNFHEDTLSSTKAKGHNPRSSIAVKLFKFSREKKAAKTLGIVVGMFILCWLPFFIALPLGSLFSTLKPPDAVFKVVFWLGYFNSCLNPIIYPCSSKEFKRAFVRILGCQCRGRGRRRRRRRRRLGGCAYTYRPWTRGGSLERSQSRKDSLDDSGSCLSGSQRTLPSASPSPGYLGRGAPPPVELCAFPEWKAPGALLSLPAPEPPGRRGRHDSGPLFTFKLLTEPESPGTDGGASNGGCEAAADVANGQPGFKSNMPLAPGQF
From the text: as §1, §2, §3, §4, §5

SMILES: COc1ccc(N2C(=O)c3ccc(C(=O)NCC(O)CN4CCN(c5ccccc5OC(C)C)CC4)cc3C2=O)cc1 (centres unmarked) [Compound 55]
- IC50 (α1d-AR): 51 nM
- IC50 (α1b-AR): > 2000 nM
